Data: patent US10870630B2, “Substituted bicyclic heteroaryl allosteric modulators of nicotinic acetylcholine receptors” (Merck Sharp & Dohme Corp., priority 2016, dated 2020)
Like-named read-outs stand apart in the source and are kept apart here.

Molecular target: human α7 nicotinic acetylcholine receptor (α7 nAChR) (Homo sapiens, UniProt P36544)
Assay: Automated patch-clamp electrophysiology functional assay (Assay A)
Type: cell-based
Settings: HEK cell line stably expressing human RIC-3 and human α7, IonFlux HT whole-cell population patch, 40 μM acetylcholine
Experimental: The α7 nAChR positive allosteric modulator (PAM) activity of the present compounds may be tested using assays known in the art. The α7 nAChR PAMs described herein have activities in an automated patch-clamp electrophysiology functional assay as described in the examples. The assay was performed using the IonFlux HT in a whole-cell, population patch configuration. See Golden et al. Assay Drug Dev. Technol. (2011) 9:608-619. The compounds were assessed for their ability to modulate the function of the human […] nAChR stably expressed in a HEK cell line both in the presence, and in the absence of the natural 07 agonist acetylcholine. By performing a series of such measurements at different concentrations, the effective concentration of the α7 nAChR PAMs (EC50) was determined. See Spencer et al. Assay Drug Dev. Technol. (2012) 10:313-324.
Automated patch-clamp electrophysiology was performed using the IonFlux HT (Fluxion Biosciences Inc., San Francisco, Calif.) in the whole-cell, population patch configuration. Test compounds were assessed for their ability to modulate the function of the α7 nicotinic acetylcholine receptor both in the presence, and in the absence of the natural α7 agonist acetylcholine. A HEK cell line stably expressing both human RIC-3 and human α7 (PrecisION hnAChR α7/RIC-3, Eurofins Pharma, St. Charles, Mo.) was cultured in 175 cm^2 triple-layer tissue culture flasks to no more than 90% confluency in DMEM/F-12 growth media supplemented with 10% heat-inactivated fetal bovine serum, 1% non-essential amino acids, 0.625 μg/mL Puromycin, and 400 μg/mL Geneticin. Immediately prior to assay, cells were detached by first aspirating growth media, rinsing with Dulbecco's phosphate buffered saline, and then adding 10 mL of Accutase (Innovative Cell Technologies, San Diego, Calif.) to the flask and then incubating at 37° C. for 5 minutes. Detached cells were then recovered by the addition of 40 mL of CHO-serum-free media supplemented with 25 mM HEPES, and rocked gently in a 50 mL conical tube for 20 minutes prior to patch-clamp assay. After recovery, cells were pelleted by centrifugation at 1,000 RPM for 1 minute in a compact bench top centrifuge; recovery media was aspirated and cells were resuspended in external recording solution (150 mM NaCl, 5 mM KCl, 2 mM CaCl2, 1 mM MgCl2, 10 mM HEPES, 12 mM dextrose) to a density of 5.0×10^6 cells/mL. The cell suspension was added to the cell inlet wells on an IonFlux HT population patch plate which had previously been rinsed and primed with deionized H2O. Test compounds were serially diluted in DMSO and then resuspended to the final test concentration in external recording solution, with, or without 40 μM acetylcholine added to the external recording solution; test compounds were then transferred to the IonFlux HT population patch plate. Internal recording solution (110 mM TrisPO4, 28 mM TrisBase, 0.1 mM CaCl2, 2 mM MgCl2, 11 mM EGTA, 4 mM MgATP) was added to the internal recording solution inlet wells on the IonFlux HT patch plate previously loaded with cells and test compounds, and the plate loaded into the IonFlux HT instrument. A protocol was executed on the IonFlux HT to trap the cells, break into the cells, and establish the whole-cell recording configuration; cells were voltage-clamped at a holding potential of −60 mV for the duration of the experiment, all experiments were conducted at room temperature, and the IonFlux HT injection pressure was 8 psi for solution applications. Upon establishing the whole-cell configuration, external recording solution was perfused into the recording chambers for 120 seconds and then 40 μM acetylcholine was applied for 1 second and immediately washed off with external recording solution for 60 seconds. The 40 μM acetylcholine-evoked α7 current served as the current response to which subsequent test compound effects, in the presence, or in the absence of 40 μM acetylcholine would be quantified relative to. […]

Sequence of human α7 nicotinic acetylcholine receptor (α7 nAChR) (P36544 23-502): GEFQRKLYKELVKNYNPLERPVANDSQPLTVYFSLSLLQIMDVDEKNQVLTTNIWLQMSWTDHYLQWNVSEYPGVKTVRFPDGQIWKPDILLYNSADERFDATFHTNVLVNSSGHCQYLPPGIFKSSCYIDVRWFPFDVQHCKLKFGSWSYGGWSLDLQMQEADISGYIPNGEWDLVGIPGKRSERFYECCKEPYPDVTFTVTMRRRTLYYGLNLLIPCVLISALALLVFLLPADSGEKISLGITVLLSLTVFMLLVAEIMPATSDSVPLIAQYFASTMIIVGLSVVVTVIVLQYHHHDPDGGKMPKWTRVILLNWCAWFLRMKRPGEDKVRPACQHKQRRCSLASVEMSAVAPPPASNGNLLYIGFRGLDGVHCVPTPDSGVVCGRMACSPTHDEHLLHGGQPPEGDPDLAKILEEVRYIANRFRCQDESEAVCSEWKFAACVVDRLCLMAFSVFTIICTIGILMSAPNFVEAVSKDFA

With `CC1(C)[C@@H](c2ccc(S(N)(=O)=O)cc2)[C@@H]1c1nc2ccccc2o1` [Example A4, 4-[(1S,3S)-3-(1,3-Benzoxazol-2-yl)-2,2-dimethyl-cyclopropyl]benzenesulfonamide] the EC50 (read-out: α7 nAChR EC50) was 280 nM and the EC50 (read-out: α7 nAChR Potency) was 100 to 500 nM.

Compound `CC1(C)[C@@H](c2ccc(S(N)(=O)=O)cc2)[C@@H]1c1nc2ccc(Cl)cc2o1` [Example A5, 4-[(1S,3S)-3-(6-Chloro-1,3-benzoxazol-2-yl)-2,2-dimethyl-cyclopropyl]benzenesulfonamide] has an EC50 (read-out: α7 nAChR EC50) of 1200 nM and an EC50 (read-out: α7 nAChR Potency) of 500 to 5000 nM.

`CC1(C)[C@@H](c2ccc(S(N)(=O)=O)cc2)[C@@H]1c1nc2cc(Cl)ccc2o1` [Example A6, 4-[(1S,3S)-3-(5-Chloro-1,3-benzoxazol-2-yl)-2,2-dimethyl-cyclopropyl]benzenesulfonamide] gave an EC50 (read-out: α7 nAChR EC50) of 430 nM and an EC50 (read-out: α7 nAChR Potency) of 100 to 500 nM.

With `NS(=O)(=O)c1ccc([C@H]2[C@H](c3nc4ccccc4o3)C2(F)F)cc1` [Example A7, 4-[(1R,3R)-3-(1,3-Benzoxazol-2-yl)-2,2-difluoro-cyclopropyl]benzenesulfonamide] the EC50 (read-out: α7 nAChR EC50) was 52 nM and the EC50 (read-out: α7 nAChR Potency) was ≤ 100 nM.

With `NS(=O)(=O)c1ccc([C@H]2[C@H](c3nc4ccccc4s3)C2(F)F)cc1` [Example A8, 4-[(1R,3S)-3-(1,3-Benzothiazol-2-yl)-2,2-difluoro-cyclopropyl]benzenesulfonamide] the EC50 (read-out: α7 nAChR EC50) was 38 nM and the EC50 (read-out: α7 nAChR Potency) was ≤ 100 nM.

`NS(=O)(=O)c1ccc([C@H]2[C@H](c3nc4ccccc4[nH]3)C2(F)F)cc1` [Example A9, 4-[(1R,3R)-3-(1H-Benzimidazol-2-yl)-2,2-difluorocyclopropyl]benzenesulfonamide] gave an EC50 (read-out: α7 nAChR Potency) of 500 to 5000 nM.

`CC1(C)[C@H](c2ccc(S(N)(=O)=O)cc2)[C@H]1c1nc2c(F)cc(F)cc2o1` [Example B1, 4-[(1R,3R)-3-(4,6-Difluoro-1,3-benzoxazol-2-yl)-2,2-dimethyl-cyclopropyl]benzenesulfonamide] gave an EC50 (read-out: α7 nAChR Potency) of 100 to 500 nM.

`CC1(C)[C@H](c2ccc(S(N)(=O)=O)cc2)[C@H]1c1nc2ccc(F)cc2o1` [Example B2, 4-[(1R,3R)-3-(6-Fluoro-1,3-benzoxazol-2-yl)-2,2-dimethyl-cyclopropyl]benzenesulfonamide] showed an EC50 (read-out: α7 nAChR EC50) of 300 nM and an EC50 (read-out: α7 nAChR Potency) of 100 to 500 nM.

Compound `CC1(C)[C@H](c2ccc(S(N)(=O)=O)cc2)[C@H]1c1nc2ccccc2s1` [Example B3, 4-[(1R,3R)-3-(1,3-Benzothiazol-2-yl)-2,2-dimethyl-cyclopropyl]benzenesulfonamide] has an EC50 (read-out: α7 nAChR EC50) of 3400 nM and an EC50 (read-out: α7 nAChR Potency) of 500 to 5000 nM.

Work on `NS(=O)(=O)c1ccc([C@H]2C[C@@H]2c2nc3ccccc3o2)cc1` [Example B4, 4-[(1S,2S)-2-(1,3-Benzoxazol-2-yl)cyclopropyl]benzenesulfonamide] yielded an EC50 (read-out: α7 nAChR Potency) of 500 to 5000 nM.

For `CC1(C)[C@H](c2ccc(S(N)(=O)=O)cc2)[C@H]1c1nc2ccc(Cl)cc2o1` [Example B5, 4-[(1R,3R)-3-(6-Chloro-1,3-benzoxazol-2-yl)-2,2-dimethyl-cyclopropyl]benzenesulfonamide], the EC50 (read-out: α7 nAChR Potency) was 100 to 500 nM.

Compound `CC1(C)[C@H](c2ccc(S(N)(=O)=O)cc2)[C@H]1c1nc2cc(Cl)ccc2o1` [Example B6, 4-[(1R,3R)-3-(5-Chloro-1,3-benzoxazol-2-yl)-2,2-dimethyl-cyclopropyl]benzenesulfonamide] has an EC50 (read-out: α7 nAChR EC50) of 200 nM and an EC50 (read-out: α7 nAChR Potency) of 100 to 500 nM.

For `NS(=O)(=O)c1ccc([C@H]2C[C@@H]2c2nc3ccc(F)cc3o2)cc1` [Example B7, 4-[(1 S,2S)-2-(6-Fluoro-1,3-benzoxazol-2-yl)cyclopropyl]benzenesulfonamide], the EC50 (read-out: α7 nAChR EC50) was 4200 nM and the EC50 (read-out: α7 nAChR Potency) was 500 to 5000 nM.

`CC1(C)[C@H](c2ccc(S(N)(=O)=O)cc2)[C@H]1c1nc2c(F)cc(F)cc2s1` [Example B8, 4-[(1R,3R)-3-(4,6-Difluoro-1,3-benzothiazol-2-yl)-2,2-dimethyl-cyclopropyl]benzenesulfonamide] gave an EC50 (read-out: α7 nAChR Potency) of 100 to 500 nM.

`CC1(C)[C@H](c2ccc(S(N)(=O)=O)cc2)[C@H]1c1nc2ccc(F)cc2s1` [Example B9, 4-[(1R,3R)-3-(6-Fluoro-1,3-benzothiazol-2-yl)-2,2-dimethyl-cyclopropyl]benzenesulfonamide] gave an EC50 (read-out: α7 nAChR EC50) of 170 nM and an EC50 (read-out: α7 nAChR Potency) of 100 to 500 nM.

Work on `COc1ccc2oc([C@@H]3[C@@H](c4ccc(S(N)(=O)=O)cc4)C3(C)C)nc2c1` [Example B10, 4-[(1R,3R)-3-(5-Methoxy-1,3-benzoxazol-2-yl)-2,2-dimethyl-cyclopropyl]benzenesulfonamide] yielded an EC50 (read-out: α7 nAChR EC50) of 660 nM and an EC50 (read-out: α7 nAChR Potency) of 500 to 5000 nM.

For `NS(=O)(=O)c1ccc([C@@H]2[C@@H](c3nc4ccccc4o3)C2(F)F)cc1` [Example B11, 4-[(1S,3S)-3-(1,3-Benzoxazol-2-yl)-2,2-difluoro-cyclopropyl]benzenesulfonamide], the EC50 (read-out: α7 nAChR EC50) was 430 nM and the EC50 (read-out: α7 nAChR Potency) was 100 to 500 nM.

`NS(=O)(=O)c1ccc([C@@H]2[C@@H](c3nc4ccccc4s3)C2(F)F)cc1` [Example B12, 4-[(1S,3R)-3-(1,3-Benzothiazol-2-yl)-2,2-difluoro-cyclopropyl]benzenesulfonamide] was tested, and the EC50 (read-out: α7 nAChR Potency) was 100 to 500 nM.

For `CC1(C)[C@@H](c2ccc(S(N)(=O)=O)cc2)[C@@H]1c1ncc2ccccc2n1` [Example C1, 4-[(1S,3S)-2,2-Dimethyl-3-quinazolin-2-yl-cyclopropyl]benzenesulfonamide], the EC50 (read-out: α7 nAChR EC50) was 1400 nM and the EC50 (read-out: α7 nAChR Potency) was 500 to 5000 nM.

`CC1(C)[C@@H](c2ccc(S(N)(=O)=O)cc2)[C@@H]1c1ncc2c(F)cccc2n1` [Example C2, 4-[(1S,3S)-3-(5-Fluoroquinazolin-2-yl)-2,2-dimethyl-cyclopropyl]benzenesulfonamide] gave an EC50 (read-out: α7 nAChR Potency) of 500 to 5000 nM.

With `CC1(C)[C@@H](c2ccc(S(N)(=O)=O)cc2)[C@@H]1c1nc2c(o1)CCCC2` [Example C3, 4-[(1S,3S)-2,2-Dimethyl-3-(4,5,6,7-tetrahydro-1,3-benzoxazol-2-yl)cyclopropyl]benzenesulfonamide] the EC50 (read-out: α7 nAChR EC50) was 120 nM and the EC50 (read-out: α7 nAChR Potency) was 100 to 500 nM.

`NS(=O)(=O)c1ccc([C@H]2[C@H](c3nc4c(o3)CCCC4)C2(F)F)cc1` [Example C4, 4-[(1R,3R)-2,2-Difluoro-3-(4,5,6,7-tetrahydro-1,3-benzoxazol-2-yl)cyclopropyl]benzenesulfonamide] was tested, and the EC50 (read-out: α7 nAChR Potency) was 500 to 5000 nM.

For `CC1(C)[C@H](c2ccc(S(N)(=O)=O)cc2)[C@H]1c1ncc2ccccc2n1` [Example D1, 4-[(1R,3R)-2,2-Dimethyl-3-quinazolin-2-yl-cyclopropyl]benzenesulfonamide], the EC50 (read-out: α7 nAChR EC50) was 7200 nM and the EC50 (read-out: α7 nAChR Potency) was 5000 to 50000 nM.

`CC1(C)[C@H](c2ccc(S(N)(=O)=O)cc2)[C@H]1c1nc2ccncc2o1` [Example D2, 4-[(1R,3R)-2,2-Dimethyl-3-oxazolo[5,4-c]pyridin-2-yl-cyclopropyl]benzenesulfonamide] was tested, and the EC50 (read-out: α7 nAChR EC50) was 3400 nM and the EC50 (read-out: α7 nAChR Potency) was 500 to 5000 nM.

For `CC1(C)[C@H](c2ccc(S(N)(=O)=O)cc2)[C@H]1c1nc2c(o1)CCCC2` [Example D3, 4-[(1R,3R)-2,2-Dimethyl-3-(4,5,6,7-tetrahydro-1,3-benzoxazol-2-yl)cyclopropyl]benzenesulfonamide], the EC50 (read-out: α7 nAChR Potency) was 500 to 5000 nM.

`Cn1c([C@@H]2[C@@H](c3ccc(S(N)(=O)=O)cc3)C2(C)C)nc2cc(F)cc(F)c21` [Example D4, 4-[(1R,3R)-3-(5,7-Difluoro-1-methyl-benzimidazol-2-yl)-2,2-dimethyl-cyclopropyl]benzenesulfonamide] was tested, and the EC50 (read-out: α7 nAChR Potency) was 5000 to 50000 nM.

For `CC1(C)OC([C@@H]2[C@@H](c3ccc(S(N)(=O)=O)cc3)C2(F)F)=Nc2ccccc21` [Example D5, 4-[(1S,3S)-3-(4,4-Dimethyl-4H-3,1-benzoxazin-2-yl)-2,2-difluorocyclopropyl]benzenesulfonamide], the EC50 (read-out: α7 nAChR EC50) was 1100 nM and the EC50 (read-out: α7 nAChR Potency) was 500 to 5000 nM.
